From patent US5801183A, “Aza and aza (N-oxy) analogs of glycine/NMDA receptor antagonists” (priority 1995, dated 1998)

Legend:
[1] = target: T1, NMDA receptor glycine site (Rattus norvegicus, UniProt P35439); assay: inhibition of [3H]DCKA binding to rat brain membranes
T1 construct: from tissue; host or cells: rat brain membranes
Experimental: (§1) The affinity of the compounds for the NMDA receptor glycine site also was measured by inhibition of [^3 H]DCKA binding to rat brain membranes. See, Canton, T. et al., J. Pharm. Pharmacol. 44:812-816 (1992).

mice = assay: maximum electroshock-induced seizure (MES) assay in mice; type: in vivo, male Swiss/Webster mice; settings: Mus musculus, iv, drug applied i.v. as an aqueous basic solution, read-out: ED50 as an anticonvulsant in a MES experiment in mice
Text: The anticonvulsant activity of the glycine antagonists may be assessed in the maximum electroshock-induced seizure (MES) assay in mice. Electroshock was applied to male Swiss/Webster mice (20-30 g, Simonsen) through corneal electrodes (Swinyard, E. A., in Anticonvulsant Drugs, Mercier, J., ed., Pergamon Press, Oxford (1973), pp. 47-65). The seizure stimulus parameters were: 50 mA, 60 Hz, rectangular pulse, width 0.8 msec, duration 200 msec. Tonic hind limb extension observed after application of the electrical stimulus was recorded as occurrence of seizure. The drug was applied i.v. as an aqueous basic solution.

[2] = test system: glycine binding site of the NMDA receptor; settings: cited from earlier work
[3] = in vivo; cited from earlier work
glycine/NMDA receptor = target: T2, glycine/NMDA receptor (Rattus norvegicus, UniProt P35439); assay: affinity at the glycine/NMDA receptor; type: binding
T2 construct: rat brain membrane homogenates that are enriched in NMDA receptors; tissue Pel-Freez, Rogers, Ark; host or cells: frozen rat brain, membrane homogenate
Experimental: as §1
The glycine antagonist potency in vitro may be determined using a 1 μM glycine-stimulated [^3 H]-MK801 binding assay. This assay takes advantage of the fact that the binding of [^3 H]-MK801 to the PCP receptor inside the pore of the NMDA channel is dependent on the presence of both glutamate and glycine. […]
The assay is conducted using rat brain membrane homogenates that are enriched in NMDA receptors. […] The final pellet is suspended in three volumes of 50 mM HEPES, pH 7.4 and the protein concentration is determined with a standard dye-binding protein assay (Bio-Rad, Richmond, Calif.). […]
On the day of the assay, the previously prepared membranes are thawed and 5 mM Tris/HCl buffer, pH 7.4, is added to yield a final protein concentration of 0.156 mg/mL. […] To determine the effect of 1 μM glycine on the binding of [^3 H]-MK801, bound radioactivity in the presence of 10 μM glutamate alone (final concentration) is subtracted from the bound radioactivity in the presence of both 10 μM glutamate and 1 μM glycine (final concentration). […]

PCP receptor = settings: Wong et al., PNAS 83:7104-7108 (1986); cited from earlier work
pigeons = settings: cited from earlier work
rodents = rodents / animal models; cited from earlier work
log P (literature) = type: physicochemical; settings: from benzene to the named substance

N#Cc1c(=O)[nH]c2cc(Cl)c(Cl)cc2[n+]1[O-] [3-Cyano-6,7-dichloro-1,2-dihydroquinoxaline-2-one-4-oxide]
IC50 [1]: 135 nM | ED50 (mice): 5 mg/kg

O=c1[nH]c2ccccc2c(O)c1[N+](=O)[O-] [4-hydroxy-3-nitro-1,2-dihydroquinolin-2-one]
binding affinity for the glycine site (in words) [2]: high binding to the glycine receptor

O=C(O)c1cc(O)c2c(Cl)cc(Cl)cc2n1 [5,7-dichlorokynurenic acid]
blood/brain barrier penetration [3]: cannot penetrate the blood/brain barrier | binding affinity for the glycine site (in words) [2]: relatively high receptor binding affinity in vitro

Oc1nc2cc(Cl)cnc2c(O)c1-c1cccc(Oc2ccccc2)c1 [5-Aza-7-chloro-4-hydroxy-3-(m-phenoxyphenyl)quinolin-2-one]
Ki (glycine/NMDA receptor): 5 nM | ED50 (mice): 3 mg/kg

O=C(O)c1cc(O)c2ccc(Cl)cc2n1 [7-Cl-kynurenic acid]
blood/brain barrier penetration [3]: cannot penetrate the blood/brain barrier | binding affinity for the glycine site (in words) [2]: relatively high receptor binding affinity in vitro

NC1CCN(O)C1=O (stereo not drawn) [HA-966]
blood/brain barrier penetration [3]: sufficiently penetrates the blood/brain barrier | binding affinity for the glycine site (in words) [2]: partial agonist with micromolar affinity for the glycine binding site

C[C@]12N[C@H](Cc3ccccc31)c1ccccc12 [MK-801]
Kd (PCP receptor): ~3 nM

c1ccc(C2(N3CCCCC3)CCCCC2)cc1 [PCP, phencyclidine]
katalepsy in pigeons (pigeons): characteristic katalepsy in pigeons | PCP-like behavioral effects (rodents): behavioral excitation (hyperlocomotion) in rodents

NCC(=O)O [glycine]
Kd ([2]; used in Cheng and Prusoff equation, read-out: known affinity for the glycine binding site of the NMDA receptor): 100 nM

O=C(O)c1cc2ccccc2[nH]1 [indole-2-carboxylic acid]
blood/brain barrier penetration [3]: cannot penetrate the blood/brain barrier | binding affinity for the glycine site (in words) [2]: relatively high receptor binding affinity in vitro

[O-][n+]1ccccc1 [pyridine N-oxide]
difference in log P from benzene (log P (literature)): -3.84
